Test results reported in patent US20150017665A1, “Peptides and Methods for Detecting MPO-ANCA” (The University of North Carolina at Chapel Hill, priority 2012, published 2015).

Tests used:
MPO-ANCA [1] = assay: Epitope excision MALDI-TOF/TOF MS of patient and healthy Ig with native MPO; type: binding; design: key: HC: Healthy control; Active disease; Remission; settings: human Ig
Excerpt: Total immunoglobulin (IgG) was purified from sera using protein A/G PLUS-Agarose Reagent according to commercial protocol (Santa Cruz Biotechnology). Purified IgG was immobilized on CNBr-activated Sepharose 4B (GE Healthcare) in compact reaction columns (CRC, USB Corporation) and exposed to native MPO protein (MPO, Elastin Products Co, Inc) followed by digestion with sequencing grade TPCK-treated trypsin (Worthington). MPO-peptides remaining bound to IgG after digestion were eluted with 0.1% trifluoro acetic acid and analyzed on a 4800 Plus Matrix-Assisted Laser Desorption Ionization Time of Flight Mass Spectrometry (MALDI TOF/TOF MS/MS) in conjunction with ProteinPilot software (AB SCIEX).
To identify epitopes of low titer autoantibodies, ^18O labeling (Mirza et al., J. Proteome Res. 7:3042 (2008)) was used to differentiate between the signal and the noise in the MS and MSMS spectra using the 4 Da shifts between the corresponding spectra of labeled and non-labeled peptides. Mass spectrometry analysis for epitopes recognized by MPO autoantibodies from healthy individuals, and for detection of low ANCA titers in remission samples required the use of isotope H2^18O to increase sensitivity (Cambridge Isotope Laboratories). Samples from healthy individuals (n=10) and MPO-ANCA patients in clinical remission (n=35) were processed in the presence of H2^18O. Incorporation of H2^18O on the carboxyl terminus of each proteolytic fragment of MPO during tryptic digestion, trypsin buffer was made with the isotope H2^18O as a diluent.
MPO-ANCA positive patients (n=45) from the University of North Carolina cohort (UNC) were analyzed in the initial studies. Demographics of the cohort (Table 2) indicate a predominantly Caucasian group. Approximately 40% are diagnosed with microscopic polyangiitis (MPA), 40% with renal-limited disease and 20% are diagnosed with granulomatosis with polyangiitis (GPA). To compare epitope specificities related to disease activity, longitudinal samples were analyzed to include active disease (n=52) and remission (n=35) from the UNC cohort (Tables 3 and 4). Ten healthy subjects were included in the analyses. Purified immunoglobulin (Ig) from sera samples was subjected to analysis by epitope excision MALDI-TOF/TOF mass spectrometry (depicted in FIG. 3A) to identify epitope profiles of autoantibodies reactive with MPO. In order to epitope map low titer anti-MPO antibodies from healthy subjects and from patients in disease remission, an approach was designed using the ^16O-to-^18O exchange technique, an adaptation of a proteomics-based quantification method (Mirza et al., J. Proteome Res. 7:3042 (2008)). Incorporation of H2^18O on the carboxyl termini of proteolytic fragments produces a 4 Da mass shift in the MS spectra, decipherable from background noise. MPO epitopes unique to Ig from patients with active disease were designated ‘exclusive to active disease’; epitopes identified in remission samples were designated ‘persistent during remission’; and those present in samples from healthy subjects were designated asymptomatic or ‘natural’.

[2] = system: anti-MPO antibodies of immunized DR2 Tg mice; assay: Epitope excision MS of IgG from immunized DR2 Tg mice with recombinant mouse MPO; type: binding; settings: DR2 Tg mice immunized with MPO aa442-460
Method: Mass spectrometry analysis of ANCA-negative IgG and mouse IgG samples were conducted as above. With the exception of protein substrate, immobilized ANCA-negative IgG were exposed to whole leukocyte lysate preparation from a healthy donor and mouse IgG to recombinant mouse MPO (R&D Systems).
As HLA-MHC II help shape the B and T cell repertoires, and consequently the response to foreign and self-antigens, we wanted to define the epitope specificity of the anti-MPO autoantibodies that could be induced experimentally using DR2 Tg mice. In this way, we could assess development of the anti-MPO antibody response after immunization of a single epitope in the context of a human MHC II. IgG from sera of immunized mice was profiled for anti-MPO epitope specificity using epitope excision MS. DR2 Tg mice developed antibodies targeting the human B cell epitope aa447-459 which is within a conserved region of both murine and human MPO. Unpredictably, immunized DR2 Tg mice initiated a polyclonal response producing autoantibodies against the entire MPO molecule. The epitope profile was astonishingly similar to that of the MPO-ANCA human profile (Table 6), indicative of the critical nature of this epitope.

DR2 Tg mice = assay: Actively induced anti-MPO associated glomerulonephritis (peptide immunization); type: in vivo, mouse
Method: DR2 Tg mice (Ooi et al., Proc. Natl. Acad. Sci. USA 109:E2615 (2012); Rich et al., Eur. J. Immunol. 34:1251 (2004)) were immunized s.c. with 3×100 μg of peptide antigen (OVA323-339, n=4 or MPO442-460, n=10) first in FCA then FIA on days 0, 7 and 14. Mice were culled on day 28.
For indirect immunofluorescence, ethanol fixed thioglycolate induced peritoneal neutrophils were cytospun onto slides, purified serum IgG (1 mg/ml) was applied for 20 minutes then anti-mouse IgG Ab was detected using FITC conjugated anti-mouse IgG Ab (Silenus) (Ooi et al., Proc. Natl. Acad. Sci. USA 109:E2615 (2012); Lock, J. Clin. Pathol. 47:4 (1994)). Albuminuria was assessed by ELISA (Bethyl Laboratories) and haematuria assessed by urine test strips (Combur) from a 24 hour urine sample. Blood urea nitrogen (BUN) was measured using standard laboratory methods on serum collected at the end of experiment. Glomerular abnormalities assessed, on […], PAS stained, formalin fixed, paraffin embedded sections (≧50 glomeruli/mouse), were thickening of the capillary walls and mesangial hypercellularity (Ooi et al., J. Am. Soc. Nephrol. 20:980 (2009)). Total glomerular cell nuclei were enumerated (≧20 glomeruli/mouse). Glomerular neutrophils were detected by immunoperoxidase staining of 6 μm thick, periodate lysine paraformaldehyde fixed, frozen kidney sections using anti-Gr-1 antibodies (RB6-8C5).

MPO-ANCA [3] = assay: Peptide ELISA with total IgG (Chapel Hill and Groningen); type: binding, human
Method: A total of 195 IgG samples were tested by native MPO or peptide ELISA. Samples included those from healthy controls (n=59), active disease (n=80) and remission patients (n=56). Total IgG was added to wells (2 μg/well) precoated with 1-2 μg peptide (UNC-CH peptide synthesis core). Goat anti-human with alkaline phosphatase conjugate secondary antibody specific to IgG (H+L) (Millipore, Billerica, Mass.) (1:10,000) was added and detected using 1-Step PNPP substrate (Thermo Scientific) and read at λ=405 nm after 30 min. Identical peptides were used in ELISAs at both locations; all other substrates used to test NL cohort samples by ELISAs were prepared in Groningen. Total IgG (1:500˜2 mg/well) was added to precoated wells blocked with 1% BSA. Secondary antibody, goat anti-human conjugated with alkaline phosphatase (A5403; Sigma-Aldrich) (1:5000), was added and detected using p-nitrophenyl-phosphate disodium substrate.

[4] = compared with OVA aa323-339 immunized mice

| Substance | Found in samples: Healthy control, Active disease, or Remission, (HC, A, R) (MPO-ANCA [1]; Table 1) | Found in samples: Healthy control, Active disease, or Remission, (HC, A, R) (MPO-ANCA [1]; Table 6) | Epitopes found in immunized mice [2] | other results |
| --- | --- | --- | --- | --- |
| IPCFLAGDTR (listed as Homo sapiens) [aa396-405] | R | R | IPCFLAGDMR |  |
| WLPAEYEDGFSLPYG (listed as Homo sapiens) [aa198-219] | A | A |  |  |
| NGFPVALAR (listed as Homo sapiens) [aa220-228] | A | A |  |  |
| QNQIAVDEIR (listed as Homo sapiens) [aa560-571] | A, R | A, R |  |  |
| FWWENEGVFSMQQR (listed as Homo sapiens) [aa678-691] | A, R, HC | A, R, HC |  |  |
| NNIFMSNTYPR (listed as Homo sapiens) [aa715-725] | A | A | NNIFMSNTYPR |  |
| FCGLPQPETVGQLGT (listed as Homo sapiens) [aa605-622] | A | A |  |  |
| RSPTLGASNR (listed as Homo sapiens) [aa184-193] | A | A | RSPTLGASNR |  |
| RDYLPLVLGPTAMR (listed as Homo sapiens) [aa460-473] | A, R, HC | A, R, HC |  |  |
| QALAQISLPR (listed as Homo sapiens) [aa692-701] | A ,R | A, R |  |  |
| IGLDLPALNMQR (listed as Homo sapiens) [aa579-590] | A, R, HC | A, R, HC | IGLDLPALNMQR |  |
| IANVFTNAFR (listed as Homo sapiens) [aa490-499] | A | A | IANVFTNAFR |  |
| NQINALTSFVDASMV (listed as Homo sapiens) [aa328-351] | A | A |  |  |
| DHGLPGYNAWR (listed as Homo sapiens) [aa593-603] | A, R, HC | A, R, HC | DHGLPGYNAWR |  |
| WDGER (listed as Homo sapiens) [aa437-441] | A, R | A, R |  |  |
| FQDNGR (listed as Homo sapiens) [aa369-374] | A | A |  |  |
| VFFASWR (listed as Homo sapiens) [aa530-536] | A, R, HC | A, R, HC | VFFASWR |  |
| FPTDQLTPDQER (listed as Homo sapiens) [aa237-248] | A, R, HC | A, R, HC |  |  |
| LYQEARKIVGAMVQIITYR (LYQEARKIVGAMVQITTYR; listed as Homo sapiens) [aa442-460] |  |  |  | induction of MPO-reactive antibodies (DR2 Tg mice; after 28 days): MPO-reactive antibodies after 28 days; BUN (DR2 Tg mice; [4]): increased BUN values; albuminuria (DR2 Tg mice; [4]): developed albuminuria; hematuria (DR2 Tg mice; [4]): hematuria; glomerular disease (DR2 Tg mice; day 28): mild glomerular proliferation |
| VGPLLACI (listed as Homo sapiens) [aa657-664] | A | A |  |  |
| KYLPTYR (listed as Homo sapiens) [aa474-480] | A ,R | A, R |  |  |
| LFEQVMR (listed as Homo sapiens) [aa572-578] | A, R, HC | A, R, HC | LFEQVMR |  |
| LYQEAR (listed as Homo sapiens) [aa442-447] | A | A |  |  |
| VVLEGGIDPILR (listed as Homo sapiens) [aa537-548] | A | A | VVLEGGIDPILR |  |
| YQPMEPNPR (listed as Homo sapiens) [aa516-524] | A, R, HC | A, R, HC |  | ELISA reactivity in clinical remission (MPO-ANCA [3]; UNC and NL cohorts, remission samples): reactivity was found in remission samples in both cohorts; ELISA reactivity with Ig from active disease samples (MPO-ANCA [3]; active disease samples): reactive with Ig from active disease samples |
